Holding throughout (format): biochemical
Assay [1] concerns the target NRAS Q61K (Homo sapiens (Human), UniProt P01111+P62937, Q61K). Description: Ras-Raf (BRAF RBD) disruption / FRET / MOA assay, NRAS Q61K. Conditions: NRAS Q61K; Ras-Raf disruption/FRET/MOA assay; read-out: IC50* NRAS Q61K FRET data. In outline: (§1)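 Compounds (30 μM top final, 10-point 3-fold dilutions) incubated 3 h at 25° C with nucleotide-loaded Ras, cyclophilin A and BRAF RBD. Detection with 10 nM anti-His Eu-W1024 and 50 nM anti-GST allophycocyanin over another 1.5 h. Lowered TR-FRET ratio relative to DMSO wells gives IC50.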

Assay [2] deals with KRAS Q61H (Homo sapiens (Human), UniProt P01116+P62937, Q61H). Description: Ras-Raf (BRAF RBD) disruption / FRET / MOA assay, KRAS Q61H. To be noted: Ras-Raf disruption/FRET/MOA assay; class symbols; read-out: KRAS Q61H FRET data IC50. In outline: as §1
Sequence of KRAS Q61H (P01116-2 other isoform, or with tags, fused parts or gaps Q61H): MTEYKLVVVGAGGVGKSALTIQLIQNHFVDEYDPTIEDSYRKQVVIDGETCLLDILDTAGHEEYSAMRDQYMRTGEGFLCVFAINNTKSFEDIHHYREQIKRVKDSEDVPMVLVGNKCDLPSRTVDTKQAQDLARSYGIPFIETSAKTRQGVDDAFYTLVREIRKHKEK
Sequence of KRAS Q61H (P62937 whole entry): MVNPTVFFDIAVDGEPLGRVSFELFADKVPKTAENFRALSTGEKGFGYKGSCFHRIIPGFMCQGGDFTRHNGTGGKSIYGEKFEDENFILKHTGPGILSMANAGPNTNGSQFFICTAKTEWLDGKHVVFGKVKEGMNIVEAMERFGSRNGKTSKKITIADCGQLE
In assay [3] the target is KRAS G13D (Homo sapiens (Human), UniProt P01116+P62937, G13D). Description: Ras-Raf (BRAF RBD) disruption / FRET / MOA assay, KRAS G13D. To be noted: read-out: IC50* KRAS G13D FRET data. In outline: (§2)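 A 10-point, 3-fold dilution series topping at 30 μM final was incubated 3 h at 25° C with the Ras/cyclophilin A/BRAF RBD mixture.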
Sequence of KRAS G13D (P01116-2 other isoform, or with tags, fused parts or gaps G13D): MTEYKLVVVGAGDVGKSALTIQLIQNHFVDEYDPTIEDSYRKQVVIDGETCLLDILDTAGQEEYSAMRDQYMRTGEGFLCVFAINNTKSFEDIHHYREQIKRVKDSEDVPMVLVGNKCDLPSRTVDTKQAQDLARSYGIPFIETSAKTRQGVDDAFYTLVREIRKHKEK
Sequence of KRAS G13D (P62937 whole entry): as the sequence (P62937 whole entry) above
Assay [4] concerns the target K-Ras G12C (Homo sapiens (Human), UniProt P01116+P62937, G12C). Description: Ras-Raf (BRAF RBD) disruption / FRET / MOA assay, KRAS G12C. Conditions: KRAS G12C; Ras-Raf disruption/FRET/MOA assay; read-out: IC50* KRAS G12C FRET data. In outline: as §2
The target of assay [5] is NRAS WT (Homo sapiens (Human), UniProt P01111+P62937). Description: Ras-Raf (BRAF RBD) disruption / FRET / MOA assay, NRAS WT. To be noted: read-out: IC50* NRAS WT FRET data. The method, boiled down: as §1
Sequence of NRAS WT (P01111 whole entry): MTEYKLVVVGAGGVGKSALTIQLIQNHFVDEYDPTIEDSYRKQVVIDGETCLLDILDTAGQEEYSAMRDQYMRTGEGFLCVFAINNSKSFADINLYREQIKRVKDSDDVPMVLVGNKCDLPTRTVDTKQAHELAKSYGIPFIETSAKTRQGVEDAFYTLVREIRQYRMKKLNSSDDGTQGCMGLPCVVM
Sequence of NRAS WT (P62937 whole entry): as the sequence (P62937 whole entry) above
Assay [6] deals with KRAS G12V (Homo sapiens (Human), UniProt P01116+P62937, G12V). Description: Ras-Raf (BRAF RBD) disruption / FRET / MOA assay, KRAS G12V. To be noted: read-out: IC50* KRAS G12V FRET data. In outline: as §2
Sequence of KRAS G12V (P01116-2 other isoform, or with tags, fused parts or gaps G12V): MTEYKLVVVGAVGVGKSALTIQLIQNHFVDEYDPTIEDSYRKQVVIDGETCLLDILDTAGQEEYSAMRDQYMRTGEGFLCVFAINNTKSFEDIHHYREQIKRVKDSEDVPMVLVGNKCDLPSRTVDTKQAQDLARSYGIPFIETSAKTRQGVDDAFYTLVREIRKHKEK
Sequence of KRAS G12V (P62937 whole entry): as the sequence (P62937 whole entry) above
Assay [7] addresses KRAS WT (Homo sapiens (Human), UniProt P01116+P62937). Description: Ras-Raf (BRAF RBD) disruption / FRET / MOA assay, KRAS WT. Conditions: read-out: IC50* KRAS WT FRET data. The method, boiled down: as §2
The target in assay [8] is KRAS G12S (Homo sapiens (Human), UniProt P01116+P62937, G12S). Description: Ras-Raf (BRAF RBD) disruption / FRET / MOA assay, KRAS G12S. To be noted: Ras-Raf disruption/FRET/MOA assay; class symbols; read-out: KRAS G12S FRET data IC50. The method, boiled down: as §2
Sequence of KRAS G12S (P01116-2 other isoform, or with tags, fused parts or gaps G12S): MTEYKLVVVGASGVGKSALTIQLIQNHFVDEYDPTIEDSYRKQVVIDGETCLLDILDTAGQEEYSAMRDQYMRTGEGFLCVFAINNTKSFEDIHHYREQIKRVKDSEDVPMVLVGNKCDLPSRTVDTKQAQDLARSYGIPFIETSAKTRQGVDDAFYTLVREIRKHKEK
Sequence of KRAS G12S (P62937 whole entry): as the sequence (P62937 whole entry) above
The target of assay [9] is KRAS G12D (Homo sapiens (Human), UniProt P01116+P62937, G12D). Description: Ras-Raf (BRAF RBD) disruption / FRET / MOA assay, KRAS G12D. Conditions: Ras-Raf disruption/FRET/MOA assay; class symbols; read-out: KRAS G12D FRET data IC50. In outline: as §2
Sequence of KRAS G12D (P01116-2 other isoform, or with tags, fused parts or gaps G12D): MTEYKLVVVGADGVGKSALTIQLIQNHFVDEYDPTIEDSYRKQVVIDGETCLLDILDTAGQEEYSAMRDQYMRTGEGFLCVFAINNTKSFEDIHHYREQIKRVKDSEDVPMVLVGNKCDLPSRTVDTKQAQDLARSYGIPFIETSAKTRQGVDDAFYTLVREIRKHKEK
Sequence of KRAS G12D (P62937 whole entry): as the sequence (P62937 whole entry) above

Each structure is given as a SMILES string. Bounds are passed on as bounds.

For six compounds, IC50 results are on record in US11566007B2, “Ras inhibitors” (Revolution Medicines, Inc., priority 2019, dated 2023).

Sequence of NRAS Q61K (P01111 whole entry Q61K): as the sequence (P01111 whole entry) above, with Q61K counted along it
Sequence of NRAS Q61K (P62937 whole entry): as the sequence (P62937 whole entry) above
Sequence of KRAS WT (P01116-2 other isoform, or with tags, fused parts or gaps): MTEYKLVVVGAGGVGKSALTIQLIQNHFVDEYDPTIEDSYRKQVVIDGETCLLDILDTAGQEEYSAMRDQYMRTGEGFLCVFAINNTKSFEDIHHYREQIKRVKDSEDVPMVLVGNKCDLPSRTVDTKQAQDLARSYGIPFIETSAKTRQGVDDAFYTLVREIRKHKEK
Sequence of KRAS WT (P62937 whole entry): as the sequence (P62937 whole entry) above
Sequence of K-Ras G12C (P01116-2 other isoform, or with tags, fused parts or gaps G12C): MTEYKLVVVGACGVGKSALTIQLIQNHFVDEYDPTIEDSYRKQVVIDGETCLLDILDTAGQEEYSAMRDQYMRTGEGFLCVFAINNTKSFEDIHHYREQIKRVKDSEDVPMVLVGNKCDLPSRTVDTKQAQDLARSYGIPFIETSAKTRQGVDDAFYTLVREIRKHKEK
Sequence of K-Ras G12C (P62937 whole entry): as the sequence (P62937 whole entry) above

On to `CCn1c(-c2cccnc2[C@H](C)OC)c2c3cc(ccc31)-c1csc(n1)C[C@H](NC(=O)[C@@H](COC1CN(C(=O)C#CC(C)(C)N(C)C)C1)C(C)C)C(=O)N1CCC[C@H](N1)C(=O)OCC(C)(C)C2` (atropisomer, axis not shown) [Example A721], for which the IC50 in [1] was greater than 10 µM; in [2] it was 1 to 10 µM; in assay [3], greater than 10 µM; in [4], less than 0.01 µM; in [5] it was 1 to 10 µM; in assay [6] it was 1 to 10 µM. Further, the IC50 in assay [7], in assay [8] and in [9] was greater than 10 µM each time.
Regarding `CO[C@@H](C)c1ncccc1-c1c2c3cc(ccc3n1CC(F)(F)F)-c1cccc(c1)C[C@H](NC(=O)[C@H](C(C)C)N(C)C(=O)[C@H]1CCN(C(=O)C#CC(C)(C)N(C)C)C1)C(=O)N1CCC[C@H](N1)C(=O)OCC(C)(C)C2` (atropisomer, axis not shown) [Example A727], the IC50 in assay [1] is 1 to 10 µM; in [2], 1 to 10 µM; in assay [3], 1 to 10 µM; in assay [4] it was less than 0.01 µM; in assay [5], 1 to 10 µM; in [6] it was 1 to 10 µM. Further, the IC50 in [7], in assay [8] and in [9] was 1 to 10 µM throughout.
As for `CCn1c(-c2cccnc2)c2c3cc(ccc31)-c1csc(c1)C[C@H](NC(=O)[C@H](C(C)C)N(C)C(=O)[C@H]1CCN(C(=O)C#CCN3CCOCC3)C1)C(=O)N1CCC[C@H](N1)C(=O)OCC(C)(C)C2` [Example A205], the IC50 in assay [1] was greater than 10 µM; in assay [2] it was greater than 10 µM; in assay [3] it was greater than 10 µM; in assay [4] it was 0.1 to 1 µM; in assay [5], greater than 10 µM; in assay [6], greater than 10 µM. Also, the IC50 in assay [7], in [8] and in [9] was greater than 10 µM in each case.
For the compound `C=CC(=O)N1CC[C@H](C(=O)N(C)[C@H](C(=O)N[C@H]2C[C@H]3CN(CCO3)c3ccc4c(c3)c(c(-c3cccnc3COC)n4CC)CC(C)(C)COC(=O)[C@@H]3CCCN(N3)C2=O)C(C)C)C1` [Example A240], the IC50 in assay [1] is greater than 10 µM; in assay [2], greater than 10 µM; in assay [3] it was greater than 10 µM; in assay [4], 1 to 10 µM; in assay [5], greater than 10 µM; in assay [6], greater than 10 µM. Moreover, the IC50 in assay [7], in [8] and in assay [9] was greater than 10 µM in each case.
`CCn1c(-c2cccnc2[C@H](C)OC)c2c3cc(ccc31)N1CCO[C@@](C)(C[C@H](NC(=O)[C@H](C(C)C)N(C)C(=O)C3(F)CCN(C(=O)C#CC(C)(C)N(C)C)CC3)C(=O)N3CCC[C@H](N3)C(=O)OCC(C)(C)C2)C1` [Example A550]: the IC50 in assay [1] is 1 to 10 µM; in assay [2], 1 to 10 µM; in assay [3] it was 1 to 10 µM; in assay [4], less than 0.01 µM; in assay [5], 0.1 to 1 µM; in assay [6], 0.1 to 1 µM. For the same compound, the results for the IC50 in assay [7], in assay [8] and in assay [9] were 0.1 to 1 µM, 1 to 10 µM and 1 to 10 µM, respectively.
With `C=CC(=O)N1CCO[C@H]2CN(C(=O)N(C)[C@H](C(=O)N[C@H]3C[C@H]4CN(CCO4)c4ccc5c(c4)c(c(-c4cccnc4[C@H](C)OC)n5CC)CC(C)(C)COC(=O)[C@@H]4CCCN(N4)C3=O)C(C)C)C[C@H]21` [Example A562], the IC50 in [1] lay in the range of 1 to 10 µM; in assay [2] it was 1 to 10 µM; in assay [3], 1 to 10 µM; in assay [4] it was 0.1 to 1 µM; in assay [5], 1 to 10 µM; in [6], 1 to 10 µM. For the same compound, the IC50 in assay [7], in assay [8] and in assay [9] was 1 to 10 µM throughout.
